Patent US20160120854A1, “PHARMACEUTICAL COMPOSITIONS” (BAYER PHARMA AKTIENGESELl SCHAFT, priority 2013, published 2016)
≈ marks a conversion by molar mass, not a printed value.

Assays:
Assay type in all cases: physicochemical
[1] = Solubility in PEG400 based vehicles
[2] = Stability in PEG6000 melt; conditions: 20% drug load, minimally two months, room temperature
Experimental: Nine parts of PEG6000 were melted in an aluminium cup (70° to 90° C.). One part of (2R)-2-(4-fluorophenyl)-N-[4-(2-{[2-methoxy-4-(methylsulfonyl)phenyl]-amino}[1,2,4]triazolo[1,5-a]pyridin-6-yl)phenyl]propanamide was added to the PEG 6000 melt. The mixture was stirred with a glass stick at approximately 90° C. After complete dissolution of (2R)-2-(4-fluorophenyl)-N-[4-(2-{[2-methoxy-4-(methylsulfonyl)phenyl]amino}[1,2,4]triazolo[1,5-a]pyridin-6-yl)phenyl]propanamide, the melt was cooled down by embedding the cup in a ice-water/NaCl mixture for several minutes. The solidified melt was pestled. (2R)-2-(4-fluorophenyl)-N-[4-(2-{[2-methoxy-4-(methylsulfonyl)phenyl]-amino}[1,2,4]triazolo[1,5-a]pyridin-6-yl)phenyl]propanamide is stable in PEG6000 melt with 20% drug load for minimally two months at room temperature.

[3] = Nine months stability study in PEG400 based LSF; conditions: nine months at 25 and 40° C.

solubility ([1]; aqueous with cosolvent or surfactant or cyclodextrin, in PEG400/PVP/water 8:1:1): ~25 mg/mL (≈ 44.7 mM) | solubility ([1]; organic solvent or mixture, in PEG400/PVP 8:2): ~25 mg/mL (≈ 44.7 mM) | solubility ([1]; organic solvent or mixture, in PEG400 based LSF (PEG400/Tween 80/L-Menthol 97:2, 5:0, 5)): ~25 mg/mL (≈ 44.7 mM) | stability in PEG6000 melt [2]: stable
SMILES: COc1cc(S(C)(=O)=O)ccc1Nc1nc2ccc(-c3ccc(NC(=O)[C@H](C)c4ccc(F)cc4)cc3)cn2n1 [compound A, (2R)-2-(4-fluorophenyl)-N-[4-(2-{[2-methoxy-4-(methylsulfonyl)phenyl]-amino}[1,2,4]triazolo[1,5-a]pyridin-6-yl)phenyl]propanamide]
stability in PEG400 based LSF [3]: no significant time dependant instability
